From ChEMBL document CHEMBL1201862, “PubChem BioAssay data set” (2004)
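1) Cells in 96-well plates. 2) Compound, 48 h, 5 concentrations. 3) Linear interpolation between surrounding doses. 4) Unreached endpoint = highest concentration. GI50 = concentration required for 50% inhibition of growth.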 Calls of active or inactive are those of the source. No stated cut-off is given here; in the data, active = GI50 up to about 1.1 µM and inactive = higher.

How the values were obtained:
Assay in all cases: DTP human tumour cell line panel, 48 h
[1] = system: A498
[2] = system: CCRF-CEM
[3] = system: EKVX
[4] = system: HOP-62
[5] = system: HT-29
[6] = system: IGROV-1
[7] = system: K562
[8] = system: LOX IMVI
[9] = system: LXFL 529
[10] = system: OVCAR-3
[11] = system: OVCAR-8
[12] = system: SK-MEL-5
[13] = system: SR
[14] = system: UO-31
[15] = system: HCC 2998
[16] = system: TK-10
[17] = system: NCI-H460

Measured: GI50

O=C1CCC2(c3ccc(F)cc3)Nc3cc(Cl)ccc3N12 (stereo unspecified)
inactive: [1] > 100 µM | [2] > 100 µM | [3] > 100 µM | [4] > 100 µM | [5] > 100 µM | [6] > 100 µM | [7] 44.6 µM | [8] > 100 µM | [9] 65.5 µM | [10] 86.5 µM | [11] > 100 µM | [12] 45.5 µM | [13] 43.4 µM | [14] 94.2 µM

CCC1CCC2CCCC(C)N12 (stereo unspecified)
inactive: [2] > 100 µM | [3] > 100 µM | [15] > 100 µM | [4] > 100 µM | [6] > 100 µM | [7] > 100 µM | [9] > 100 µM | [10] > 100 µM | [11] > 100 µM | [13] > 100 µM | [16] > 100 µM | [14] > 100 µM

Cc1ccc(F)c2c(=O)cc(-c3ccccc3)[nH]c12
inactive: [2] > 100 µM | [4] > 100 µM | [5] > 100 µM | [6] > 100 µM | [7] > 100 µM | [8] > 100 µM | [9] > 100 µM | [17] > 100 µM | [11] > 100 µM | [12] 87.5 µM | [13] 50.5 µM | [16] > 100 µM | [14] 60.3 µM

O=C(/N=C(/Nc1ccccc1)SCCS/C(=N\C(=O)c1ccccc1)Nc1ccccc1)c1ccccc1
inactive: [1] 58.7 µM | [2] 64.6 µM | [3] > 100 µM | [15] 34.9 µM | [4] 86.5 µM | [5] 35.6 µM | [6] > 100 µM | [7] 43.6 µM | [8] 58.6 µM | [9] 56.2 µM | [17] 44.3 µM | [10] 67.9 µM | [11] 71.1 µM | [12] 48.3 µM | [16] > 100 µM | [14] 32.9 µM

CCOc1ccc(N(CC(=O)N2CC(=O)Nc3cc(C)c(C)cc32)C(C)=O)cc1
inactive: [2] > 100 µM | [3] > 100 µM | [15] > 100 µM | [4] > 100 µM | [5] > 100 µM | [7] > 100 µM | [8] > 100 µM | [9] > 100 µM | [17] > 100 µM | [10] 63.8 µM | [11] > 100 µM | [12] > 100 µM | [13] > 100 µM | [16] > 100 µM | [14] 75.7 µM

COC(=O)C1=CCS(=O)(=O)C1
inactive: [1] > 100 µM | [2] > 10 µM | [3] > 100 µM | [15] > 100 µM | [4] > 100 µM | [5] > 100 µM | [6] > 100 µM | [7] > 100 µM | [8] > 100 µM | [9] > 100 µM | [17] > 100 µM | [10] > 100 µM | [11] > 100 µM | [12] 5.16 µM | [16] > 100 µM | [14] > 100 µM

O=C1NC2(CCCC2)/C(=N\O)C12CCCC2
inactive: [1] > 100 µM | [2] > 100 µM | [3] > 100 µM | [4] > 100 µM | [5] > 100 µM | [6] > 100 µM | [7] > 100 µM | [8] > 100 µM | [9] > 100 µM | [17] > 100 µM | [10] > 100 µM | [11] > 100 µM | [12] > 100 µM | [13] > 100 µM | [16] > 100 µM | [14] > 100 µM

CCN(CC)CC(=O)/C=C/c1ccc(C)cc1
inactive: [1] 56 µM | [2] 2.93 µM | [15] 17.9 µM | [4] 34.1 µM | [5] 22.3 µM | [6] 20.8 µM | [7] 35.6 µM | [8] 18.5 µM | [9] 18.6 µM | [17] 20.6 µM | [10] 19.9 µM | [11] 20.1 µM | [12] 17.8 µM | [13] 27.7 µM | [16] 28.3 µM | [14] 20.1 µM

CCOc1cn(C2OC(CO)C(O)C2O)c(=O)[nH]c1=O (stereo unspecified)
inactive: [1] > 100 µM | [2] > 100 µM | [3] > 100 µM | [15] > 100 µM | [4] > 100 µM | [5] > 100 µM | [6] > 100 µM | [7] > 100 µM | [8] > 100 µM | [9] > 100 µM | [17] > 100 µM | [10] > 100 µM | [11] > 100 µM | [12] > 100 µM | [16] > 100 µM | [14] > 100 µM

CCCCC1(C(NC(=O)c2ccccc2Cl)c2ccncc2)C(=O)N(c2ccccc2)N(c2ccccc2)C1=O (stereo unspecified)
inactive: [2] 27.9 µM | [3] 58.3 µM | [15] 57.5 µM | [4] > 100 µM | [5] 41.6 µM | [6] > 100 µM | [7] 33.5 µM | [8] 56.9 µM | [9] 36.2 µM | [17] 32.8 µM | [10] 60 µM | [11] 75 µM | [12] 18.1 µM | [13] 55.1 µM | [16] 41 µM | [14] 33 µM

CCCCCCCCc1cc2c(O)c(c1)Cc1cc(CCCCCCCC)cc(c1O)Cc1cc(CCCCCCCC)cc(c1O)Cc1cc(CCCCCCCC)cc(c1O)Cc1cc(CCCCCCCC)cc(c1O)Cc1cc(CCCCCCCC)cc(c1O)C2
inactive: [1] > 100 µM | [2] > 100 µM | [15] > 100 µM | [4] > 10 µM | [5] > 100 µM | [6] > 100 µM | [7] > 100 µM | [8] > 100 µM | [9] > 100 µM | [17] > 100 µM | [11] > 100 µM | [13] > 100 µM | [16] > 100 µM | [14] > 100 µM

O=c1/c(=C/c2ccc(Cl)cc2Cl)sc2nc3ccccc3n12
inactive: [1] > 100 µM | [2] > 100 µM | [3] > 100 µM | [15] > 100 µM | [4] > 100 µM | [5] > 100 µM | [6] > 100 µM | [7] > 100 µM | [8] > 100 µM | [9] > 100 µM | [17] > 100 µM | [10] > 100 µM | [11] > 100 µM | [12] > 100 µM | [16] > 100 µM | [14] > 100 µM

O=C1Sc2ccccc2C(=O)N2CSCC12 (stereo unspecified)
inactive: [2] > 100 µM | [3] > 100 µM | [15] > 100 µM | [4] > 100 µM | [5] > 100 µM | [6] > 100 µM | [7] > 100 µM | [8] > 100 µM | [9] > 100 µM | [17] > 100 µM | [10] > 100 µM | [11] > 100 µM | [12] > 100 µM | [13] > 100 µM | [16] > 100 µM | [14] > 100 µM
